Results from patent US12213483B1, “Herbicidal compositions comprising trifludimoxazin” (BASF SE, priority 2024, dated 2025).
Where “and” joins values, the source holds several entries; their conditions need not be identical. Identical values can stand only once.

Experiments:
Type in all cases: in vivo
[1] = tested on: Sorghum halapense (SORHA); experiment: Post-emergence application in greenhouse trials, SORHA; conditions: 20 DAT; growth stage 14; 0.9 g ai/ha
Method: (§1) In the examples below, using the method of S. R. Colby (1967) “Calculating synergistic and antagonistic responses of herbicide combinations”, Weeds 15, p. 22ff., the value E, which is expected if the activity of the individual active compounds is only additive, was calculated: E=X+Y−(X·Y/100) • where • X=percent activity using active herbicide A at an application rate a; • Y=percent activity using active trifludimoxazin at an application rate b; • E=expected activity (in %) by A+B at application rates a+b.
(§2) If the value found experimentally is higher than the value E calculated according to Colby, a synergistic effect is present.
(§3) The culture containers used were plastic pots containing loamy sand with approximately 3.0% of humus as substrate. The seeds of the test plants were sown separately for each species.
(§4) For the post-emergence treatment, the test plants were grown to a plant height of from 3 to 15 cm, depending on the plant habit, and only then treated with the active compounds which had been suspended or emulsified in water. To this end, the test plants were either sown directly, and grown in the same containers, or they were first grown separately as seedlings and transplanted into the test containers a few days prior to treatment.
(§5) Depending on the species, the plants were kept at 10-25° C. and 20-35° C., respectively.
(§6) The test period extended over 2 to 4 weeks. During this time, the plants were tended and their response to the individual treatments was evaluated.
(§7) Evaluation was carried out using a scale from 0 to 100. 100 means no emergence of the plants, or complete destruction of at least the above-ground parts, and 0 means no damage or normal course of growth. A good herbicidal activity is given at values of at least 70, and very good herbicidal activity is given at values of at least 85.
(§8) In the greenhouse trials, unless indicated otherwise, herbicide A, trifludimoxazin and saflufenacil were formulated (50 g/I) and applied with addition of 1% MSO (methylated seed oil) as adjuvant. The solvent used was water (200 I/ha).

[2] = tested on: Abutilon theophrasti (ABUTH); experiment: Post-emergence application in greenhouse trials, ABUTH
Method: as §1, §2, §3, §4, §5, §6, §7, §8

Setaria viridis (SETVI) = experiment: Post-emergence application in greenhouse trials, SETVI
Method: as §1, §2, §3, §4, §5, §6, §7, §8

Hordeum vulgare (HORVS) = experiment: Post-emergence application in field trials, HORVS; conditions: 29 DAT; water volume 100 l/ha; pre plant burndown; growth stage 15-24; height 25-45 cm; 18 g ai/ha
Method: as §1, §2
(§9) On field test sites, natural weed infestation or seeded weeds were treated post-emergence of the weeds.
(§10) In the field trials, the weedy plants were treated as indicated below.
(§11) Herbicide A-1 (342 g/I), trifludimoxazin (500 g/I) and saflufenacil (342 g/I) were, together with addition of 1% MSO (methylated seed oil) as adjuvant (unless indicated otherwise), formulated in water as distribution medium as indicated and sprayed with commercial flat fan nozzles.
(§12) In the following experiments, the herbicidal activity for the individual herbicidal compositions (solo and mixture applications) was assessed at the indicated days after treatment (DAT). The assessments for the damage on undesired weeds caused by the composition was carried out using a scale from 0 to 100%, compared to the untreated control plants. Here, 0 means no damage and 100 means complete destruction of the plants.
(§13) Herbicide A-1 (100 g/l) and trifludimoxazin (500 g/l) were, together with addition of 1% MSO (methylated seed oil) as adjuvant (unless indicated otherwise), formulated in water as distribution medium as indicated and sprayed with commercial flat fan nozzles.

Avena fatua (AVEFA) [3] = experiment: Post-emergence application in greenhouse trials, AVEFA; conditions: 20 DAT; growth stage 13; 0.3 g ai/ha
Method: as §1, §2, §3, §4, §5, §6, §7, §8

[4] = tested on: Digitaria sanguinales (DIGSA); experiment: Post-emergence application in greenhouse trials, DIGSA; conditions: 7 DAT; GS 12; C-1 0.3 g ai/ha
Method: as §1, §2, §3, §4, §5, §6, §7, §8

[5] = tested on: Commelina benghalensis (COMBE); experiment: Post-emergence application in greenhouse trials, COMBE; conditions: 20 DAT; growth stage 21; 0.9 g ai/ha
Method: as §1, §2, §3, §4, §5, §6, §7, §8

Avena fatua (AVEFA) [6] = experiment: Post-emergence application in field trials, AVEFA; conditions: 29 DAT; water volume 100 l/ha; pre plant burndown; growth stage 14-23; height 24-40 cm; 18 g ai/ha
Method: as §1, §2, §9, §10, §11, §12, §13

Kochia scoparia (KCHSC) = experiment: Post-emergence application in greenhouse trials, KCHSC
Method: as §1, §2, §3, §4, §5, §6, §7, §8

[7] = tested on: Lolium multiflorum (LOLMU); experiment: Post-emergence application in greenhouse trials, LOLMU; conditions: 20 DAT; growth stage 13; 0.3 g ai/ha
Method: as §1, §2, §3, §4, §5, §6, §7, §8

CC(C)N(C)S(=O)(=O)NC(=O)c1cc(-n2c(=O)cc(C(F)(F)F)n(C)c2=O)c(F)cc1Cl [C-1, saflufenacil]
% Herbicidal activity [1]: 0% | % Herbicidal activity ([2]; 6 DAT, GS 33, C-1 1.1 g ai/ha): 45% | % Herbicidal activity ([2]; 20 DAT, growth stage 33, 1.1 g ai/ha): 0% | % Herbicidal activity (Setaria viridis (SETVI); 7 DAT, GS 14, C-1 0.9 g ai/ha): 35% | % Herbicidal activity (Setaria viridis (SETVI); 20 DAT, growth stage 14, 0.9 g ai/ha): 35% | % Herbicidal activity (Hordeum vulgare (HORVS)): 0% | % Herbicidal activity (Avena fatua (AVEFA) [3]): 0% | % Herbicidal activity [4]: 10% and 15% | % Herbicidal activity [5]: 80% | % Herbicidal activity (Avena fatua (AVEFA) [6]): 0% | % Herbicidal activity (Kochia scoparia (KCHSC); 6 DAT, GS 33, C-1 0.5 g ai/ha): 60% | % Herbicidal activity (Kochia scoparia (KCHSC); 20 DAT, growth stage 33, 0.5 g ai/ha): 40% | % Herbicidal activity (Kochia scoparia (KCHSC); 20 DAT, growth stage 33, 0.9 g ai/ha): 60% | % Herbicidal activity [7]: 0%
